From the supplement of paper PMC10331698
± gives the standard deviation of the averaged measurements.

Key:
[1] = compound: C=CC(=O)OCC(F)(F)C(F)(F)C(F)(F)C(F)(F)C(F)(F)C(F)(F)C(F)(F)C(F)F [1H,1H,9H-Perfluorononyl acrylate]; assay: level (log10 ratio to DMSO vehicle control); higher = higher biomarker level / cell amount than vehicle control; conditions: in DMSO
Procedure: (§1)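 BioMAP Diversity Plus panel of 12 human primary cell co-culture systems (3C, 4H, LPS, SAg, BT, BF4T, BE3C, CASM3C, HDF3CGF, KF3CT, MyoF, Mphg). Compounds were added 1 h before stimulation and left for 24 h (MyoF 48 h; BT 72 h for soluble read-outs or 6 d for IgG). Biomarkers were read by ELISA, cytotoxicity by SRB, PBMC viability and proliferation by Alamar Blue. Each well value was divided by the mean of 8 DMSO control wells on the same plate and log10 transformed; duplicate blinded samples were tested at 4 concentrations.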

[2] = compound: FC(F)(I)C(F)(F)C(F)(F)C(F)(F)C(F)(F)C(F)(F)I [1,6-Diiodoperfluorohexane]; assay: as above; conditions: 6700 nM; in DMSO
Procedure: as §1

Row | Test System | level (log10) ([1]; 6700 nM) | level (log10) ([1]; 20000 nM) | level (log10) ([1]; 60000 nM) | level (log10) [2]
1 | LPS:CD141/Thrombomodulin | -0.028 ± 0.0042 | -0.0695 ± 0.035 | -0.108 ± 0.021 | 0.007
2 | BE3C:CXCL8/IL-8 | -0.0165 ± 0.016 | -0.012 ± 0.013 | -0.004 ± 0.024 | 0.011
3 | BE3C:HLA-DR | -0.0215 ± 0.029 | -0.01 ± 0.021 | -0.0305 ± 0.012 | -0.01
4 | LPS:CD69 | -0.0345 ± 0.011 | -0.062 ± 0.011 | -0.102 ± 0.023 | -0.019
5 | BT:sTNF-alpha | -0.111 ± 0.039 | -0.281 ± 0.065 | -0.827 ± 0.71 | -0.145
6 | BE3C:CD54/ICAM-1 | -0.01 ± 0.0042 | -0.0095 ± 0.013 | -0.0165 ± 0.011 | 0.001
7 | LPS:CD142/Tissue Factor | 0.019 ± 0.025 | 0.0415 ± 0.026 | -0.015 ± 0.013 | 0.019
8 | 4H:CCL26/Eotaxin-3 | -0.0045 ± 0.0035 | -0.016 ± 0.031 | -0.052 ± 0.024 | -0.037
9 | BE3C:EGFR | -0.0025 ± 0.005 | 0.003 ± 0.0071 | -0.014 ± 0.023 | -0.015
10 | BT:sIL-17F | -0.175 ± 0.05 | -0.483 ± 0.2 | -0.84 ± 0.25 | 0.06
11 | BT:PBMC Cytotoxicity | -0.047 ± 0.0085 | -0.1 ± 0.0085 | -0.287 ± 0.1 | 0.035
12 | BF4T:CD106/VCAM-1 | -0.007 ± 0.0071 | -0.0165 ± 0.04 | 0.0185 ± 0.066 | -0.041
13 | BF4T:uPA | -0.0055 ± 0.023 | -0.0075 ± 0.018 | -0.002 ± 0.018 | -0.031
14 | BF4T:CD90 | -0.0085 ± 0.016 | 0.005 ± 0.0071 | -0.022 ± 0.0071 | -0.059
15 | 4H:CD106/VCAM-1 | -0.02 ± 0.0071 | -0.023 ± 0.0028 | -0.0425 ± 0.03 | -0.052
16 | 3C:CXCL8/IL-8 | 0.001 ± 0.03 | 0.02 ± 0.023 | 0.029 ± 0.033 | -0.008
17 | SAg:CD69 | -0.0475 ± 0.028 | -0.0395 ± 0.03 | -0.099 ± 0.018 | -0.026

Row | Test System | level (log10) ([1]; 6700 nM) | level (log10) ([1]; 20000 nM) | level (log10) ([1]; 60000 nM) | level (log10) [2]
18 | BF4T:MMP-1 | -0.0185 ± 0.0021 | -0.0005 ± 0.005 | 0.001 ± 0.0057 | -0.006
19 | BE3C:CXCL11/I-TAC | 0.0045 ± 0.00071 | 0.0085 ± 0.013 | -0.005 ± 0.0085 | 0.024
20 | BF4T:CCL26/Eotaxin-3 | -0.0095 ± 0.061 | -0.066 ± 0.078 | -0.084 ± 0.018 | -0.071
21 | BE3C:CD87/uPAR | 0.0055 ± 0.023 | 0.0395 ± 0.012 | 0.0365 ± 0.016 | 0.059
22 | 3C:CD87/uPAR | 0.012 ± 0.04 | 0.016 ± 0.013 | 0.017 ± 0.0099 | -0.022
23 | SAg:SRB | -0.0035 ± 0.0035 | -0.0055 ± 0.0021 | -0.007 ± 0.021 | 0.011
24 | LPS:CD106/VCAM-1 | -0.002 ± 0.011 | -0.0365 ± 0.019 | -0.0565 ± 0.0021 | -0.041
25 | BE3C:CXCL10/IP-10 | -0.01 ± 0.016 | 0 ± 0.0014 | -0.005 ± 0.0099 | 0.008
26 | BF4T:PAI-I | 0.007 ± 0.0057 | 0.003 ± 0.0085 | 0.0005 ± 0.012 | -0.072
27 | 4H:VEGFR2 | -0.018 ± 0.014 | -0.009 ± 0.057 | 0.0045 ± 0.03 | -0.002
28 | LPS:CD62E/E-Selectin | -0.002 ± 0.027 | 0.0165 ± 0.026 | -0.008 | -0.024
29 | LPS:CXCL8/IL-8 | -0.001 ± 0.047 | 0.0095 ± 0.023 | -0.023 ± 0.028 | 0.002
30 | LPS:sPGE2 | -0.046 ± 0.0071 | -0.123 ± 0.053 | -0.15 ± 0.11 | -0.063
31 | BE3C:CXCL9/MIG | 0.008 ± 0.0028 | 0.0055 ± 0.0078 | 0.0035 ± 0.0021 | 0.01
32 | LPS:SRB | -0.006 ± 0.0028 | 0.003 ± 0.0042 | -0.0055 ± 0.011 | 0.012
33 | SAg:CCL2/MCP-1 | -0.0425 ± 0.015 | -0.0565 ± 0.005 | -0.033 ± 0.13 | 0.001
34 | BT:sIL-17A | -0.174 ± 0.019 | -0.509 ± 0.17 | -1.28 ± 0.4 | -0.079
